Source: PMC6749073 (Frontiers in Pharmacology, 2019)
pIC50: −log10 of the molar value.

What was measured:
normal ICR mice = assay: LD50 in normal ICR mice; format: in vivo; conditions: tail vein injection
Experimental: After injection, the animals’ condition was monitored every day for over 1 week by an observer who was blinded to the dose and drug allocation.
Estimates for ED50 and LD50 were calculated through nonlinear regression, data were fitted to a sigmoidal dose-response relationship in Prism (version 4.0a; GraphPad Software, Inc., San Diego, CA). The data were fitted to the equation:
Y=Ymin+Ymax−Ymin/1+10^(LogED50−X)∗HillSlope
where X is the logarithm of concentration, and Y is the response.

A549 and H292 cells = assay: EdU incorporation assay; format: cell-based, human; conditions: 48 h; diplatin 50 μM, DDP 5 μM, CBP 100 μM
Experimental: Cell proliferation was analyzed by measurement of DNA synthesis as identified by the EdU cell proliferation assay, which was applied in accordance with product manufacturer instructions. Cells (5 × 10^4 cells per well) were cultured in triplicate in 24-well plates and treated with testing compounds for 48 h. Then the cells were incubated with 50 μM EdU for an additional 2 h at 37°C. Cells were fixed with 4% formaldehyde for 30 min and were permeabilized with 0.5% Triton X-100 for 10 min at room temperature. After washing with PBS three times, cells were incubated for 30 min with 1× Apollo reaction cocktail. Finally, cells were stained with 10 μg/ml of Hoechst 33342 for 30 min and then imaged using a confocal laser scanning microscope (FV1000; Olympus, Japan). The percentage of EdU^+ cells was quantified using ImageJ software by dividing the mean OD of EdU^+ cells to the mean OD of Hoechst-labeled cells.

H460 = assay: MTT cell viability assay, H460; format: cell-based, human; conditions: 48 h
Experimental: (§1) Cells were seeded at a density of 1 × 10^4 cells per well in 96-well plates. The following day, these cells were washed with PBS and exposed to different concentrations of testing compounds in culture medium for 48 h. MTT solution (10 μl at 5 mg/ml) was added to each well. After 4 h of incubation at 37°C, the medium was removed, and the insoluble precipitate was dissolved in 100 μl DMSO (Sigma, St. Louis, MO, USA). The absorbance of the dissolved solution at 490 nm was measured using a microplate reader (TECAN A-5082; Megllan, Austria). Cell viability percentages were calculated by dividing the mean optical density (OD) of compound-containing wells by that of the control wells. Each experiment was replicated three times. The IC50 of testing drugs was calculated with Statistical Product and Service Solutions software (SPSS, version 16.0).

H1650 = assay: MTT cell viability assay, H1650; format: cell-based, human; conditions: 48 h
Experimental: as §1

LTEP-A-2 cells = assay: Cell cycle by PI flow cytometry, LTEP-A-2; format: cell-based, human; conditions: diplatin 50 µM, DDP 5 µM, CBP 100 µM
Experimental: Then, the cells were trypsinized, washed with PBS, and fixed in 1.5 ml 95% ethanol and left at 4°C overnight. They were then incubated with RNase and stained with propidium iodide (PI) (Multi Sciences Biotech Co., Ltd). PI absorbance was determined using a Cytomics FC500 Flow Cytometer (Beckman Coulter, USA).

ICR mice = assay: General neurotoxicity observation in ICR mice; format: in vivo; conditions: i.v.
Text: The animals were observed daily for any evident symptoms of sickness. Changes in their appearance (e.g., kyphosis and altered grooming), behavior (altered nesting) and activity (altered exploring) were monitored for general neurotoxicity assessment.

A549/DDP xenograft tumor = conditions: diplatin 120 mg/kg vs DDP 6 mg/kg and CBP 60 mg/kg
Experimental: Cells in logarithmic growth were washed with PBS and suspended in serum-free medium. Portions of the suspension (5 × 10^6 cells in 0.1 ml/mouse) were mixed at a 3:1 ratio with Matrigel basement membrane matrix and injected subcutaneously into the mice. Following 2 weeks of growth, tumor tissues were cut into multiple 2 × 2 × 2 mm^3 pieces and implanted using a range trocar subcutaneously (s.c. injection) into the left forepaw armpit of each mouse ([Jiang et al., 2017]). Treatment with pharmacology was started when the tumors reached an average volume of 100–200 mm^3. The mice were randomly divided into six groups (n = 14/group).
Body weight and tumor size were assessed every 3 days. Tumor size was measured using a caliper, the volumes were calculated according to the following standard formula: V = (L × W^2)/2 (V = tumor volume, L = largest diameter of tumor, W = smallest diameter of tumor). On day 25, all mice were sacrificed by cervical dislocation, and the tumors were removed and weighed.

[1] = Biodistribution of Pt by atomic absorption spectrometry in A549 xenograft nude mice; format: in vivo; conditions: 6 h after administration; diplatin 120 mg/kg vs CBP 70 mg/kg (equivalent Pt dose), i.v.
Experimental: At each time point of 10 min, 2 h, 6 h, and 24 h after administration, six mice were sacrificed. The tumors, organs/tissues, and blood were immediately collected. Then, Pt concentration was measured by atomic absorption spectrometry, counting the weight/volume of the tumors, tissues, organs, or blood.
At each time point of 10 min, 2 h, 6 h and 24 h after administration, 6 mice were sacrificed. The tumors, organ/tissue, and blood were immediately collected. Then, Pt concentration was measured by atomic absorption spectrometry, counting the weight/volume of the tumors, tissues or organs/blood.

CCN(CC)CCCCC1C(=O)[O][Pt][O]C1=O.N[C@@H]1CCCC[C@H]1N.O=P(O)(O)O [Diplatin]
Mice LD50 (normal ICR mice): 496 mg/kg | EdU incorporation (A549 and H292 cells): dramatically decreased | pIC50 (H460): 4.39 | pIC50 (H1650): 4.44 | effect on cell cycle distribution (LTEP-A-2 cells): significant accumulation of cells in G2/M phase | animals showing signs of mild kyphosis and piloerection (ICR mice; 240 mg/kg twice a week for 4 weeks): approximately 20% | changes in behavior (altered nesting) and activity (altered exploring) (ICR mice; 60, 120, or 240 mg/kg twice a week for 4 weeks): no notable changes | antitumor activity in A549/DDP xenograft tumor (A549/DDP xenograft tumor): more potent antitumor activities than DDP and CBP | Pt accumulation in the kidneys, times higher than CBP [1]: 2.2 times
